From US11680060B2, “Bicycloheptane pyrrolidine orexin receptor agonists” (Merck Sharp & Dohme LLC, priority 2020, dated 2023)

Molecular target: human OX2R (Homo sapiens (Human), UniProt O43614)
Assay: IPOne (IP-1) assay in CHO cells expressing human OX2R
Assay type: cell-based
Conditions: for Emax: CHO, percentage of mean max effect of a reference compound at 1 uM (100% activity by comparison to Orexin A), human OX2R, read-out: Emax (%); for IC50: CHO cells expressing human OX2R, IP-One detection, 2 hours incubation, EC50 = inflection point of four parameter logistic fit, read-out: hOX2R_IP_IC50
Method in brief: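 CHO cells stably expressing human OX2R were stimulated with compound (10-point ½-log dilutions) for 2 h at 37 °C. IP-1 accumulation was read by HTRF (IP-One, 665/620 nm). EC50 from a four-parameter fit; % effect relative to 1 μM reference agonist control.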

Chain of human OX2R (O43614 whole entry): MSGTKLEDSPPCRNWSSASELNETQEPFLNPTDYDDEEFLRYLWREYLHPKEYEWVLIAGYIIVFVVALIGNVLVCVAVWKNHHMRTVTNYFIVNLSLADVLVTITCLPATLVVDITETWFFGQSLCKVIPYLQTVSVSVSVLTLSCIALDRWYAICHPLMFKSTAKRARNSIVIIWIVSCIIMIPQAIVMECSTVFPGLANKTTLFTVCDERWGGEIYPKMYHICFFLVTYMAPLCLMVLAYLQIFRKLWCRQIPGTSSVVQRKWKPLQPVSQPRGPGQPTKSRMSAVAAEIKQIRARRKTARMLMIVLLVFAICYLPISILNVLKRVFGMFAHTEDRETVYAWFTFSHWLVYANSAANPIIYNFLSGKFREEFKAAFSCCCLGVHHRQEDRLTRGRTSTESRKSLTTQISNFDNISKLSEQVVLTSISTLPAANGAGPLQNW

| Emax | IC50 | SMILES |
| --- | --- | --- |
| 99% | – | COC(=O)N1[C@H](C)C[C@H](NS(=O)(=O)N(C)C)[C@@H]1COC1CCC2(c3ccccn3)CC2C1 (stereo partly drawn) [Example 9, methyl (2R,3S,5R)-3-((N,N-dimethylsulfamoyl)amino)-5-methyl-2-(((6-(pyridin-2-yl)bicyclo[4.1.0]heptan-3-yl)oxy)methyl)pyrrolidine-1-carboxylate] |
| 105% | – | CC(C)OC(=O)N1[C@H](C)C[C@H](NS(=O)(=O)CF)[C@@H]1COC1CCC2(c3ncc(Br)cn3)CC2C1 (stereo partly drawn) [Example 108, isopropyl (2R,3S,5R)-2-(((6-(5-bromopyrimidin-2-yl)bicyclo[4.1.0]heptan-3-yl)oxy)methyl)-3-((fluoromethyl)sulfonamido)-5-methylpyrrolidine-1-carboxylate] |
| 101% | – | COC(=O)N1[C@H](C)C[C@H](NS(=O)(=O)C(F)F)[C@@H]1CO[C@H]1CC[C@@]2(c3ncc(Cl)cn3)C[C@H]2C1 [Example 78, methyl (2R,3S,5R)-2-((((1S,3S,6R)-6-(5-chloropyrimidin-2-yl)bicyclo[4.1.0]heptan-3-yl)oxy)methyl)-3-((difluoromethyl)sulfonamido)-5-methylpyrrolidine-1-carboxylate] |
| 95.4% | – | CC(C)OC(=O)N1[C@H](C)C[C@H](NS(=O)(=O)N(C)C)[C@@H]1COC1CCC2(c3ncccn3)CC2C1 (stereo partly drawn) [Example 174, isopropyl (2R,3S,5R)-3-((N,N-dimethylsulfamoyl)amino)-5-methyl-2-(((6-(pyrimidin-2-yl)bicyclo[4.1.0]heptan-3-yl)oxy)methyl)pyrrolidine-1-carboxylate] |
| 101% | – | COC(=O)N1[C@H](C)C[C@H](NS(C)(=O)=O)[C@@H]1CO[C@H]1CC[C@@]2(c3ncc(F)cn3)C[C@H]2C1 [Example 137, methyl (2R,3S,5R)-2-((((1S,3S,6R)-6-(5-fluoropyrimidin-2-yl)bicyclo[4.1.0]heptan-3-yl)oxy)methyl)-5-methyl-3-(methylsulfonamido)pyrrolidine-1-carboxylate] |
| 101% | – | CC(C)OC(=O)N1[C@H](C)C[C@H](NS(=O)(=O)N(C)C)[C@@H]1CO[C@H]1CC[C@@]2(c3ncccn3)C[C@H]2C1 [Example 171, isopropyl (2R,3S,5R)-3-((N,N-dimethylsulfamoyl)amino)-5-methyl-2-((((1S,3S,6R)-6-(pyrimidin-2-yl)bicyclo[4.1.0]heptan-3-yl)oxy)methyl)pyrrolidine-1-carboxylate] |
| 99.4% | 0.41 nM | COC(=O)N1[C@H](C)C[C@H](NS(=O)(=O)N(C)C)[C@@H]1CO[C@H]1CC[C@@]2(c3ncc(F)cn3)C[C@H]2C1 [Example 166, methyl (2R,3S,5R)-3-((N,N-dimethylsulfamoyl)amino)-2-((((1S,3S,6R)-6-(5-fluoropyrimidin-2-yl)bicyclo[4.1.0]heptan-3-yl)oxy)methyl)-5-methylpyrrolidine-1-carboxylate] |
| 90.7% | – | COC(=O)N1[C@H](C)C[C@H](NS(C)(=O)=O)[C@@H]1COC1CCC2(c3ncc(F)c(C(F)F)n3)CC2C1 (stereo partly drawn) [Example 73, methyl (2R,3S,5R)-2-(((6-(4-(difluoromethyl)-5-fluoropyrimidin-2-yl)bicyclo[4.1.0]heptan-3-yl)oxy)methyl)-5-methyl-3-(methylsulfonamido)pyrrolidine-1-carboxylate] |
| 103% | 0.86 nM | COC(=O)N1[C@H](C)C[C@H](NS(=O)(=O)CF)[C@@H]1CO[C@H]1CC[C@@]2(c3ncc(Cl)cn3)C[C@H]2C1 [Example 79, methyl (2R,3S,5R)-2-((((1S,3S,6R)-6-(5-chloropyrimidin-2-yl)bicyclo[4.1.0]heptan-3-yl)oxy)methyl)-3-((fluoromethyl)sulfonamido)-5-methylpyrrolidine-1-carboxylate] |
| 103% | – | COC[C@@H]1C[C@H](NS(C)(=O)=O)[C@H](CO[C@H]2CC[C@@]3(c4ncc(F)cn4)C[C@H]3C2)N1C(=O)OC [Example 132, methyl (2R,3S,5S)-2-((((1S,3S,6R)-6-(5-fluoropyrimidin-2-yl)bicyclo[4.1.0]heptan-3-yl)oxy)methyl)-5-(methoxymethyl)-3-(methylsulfonamido)pyrrolidine-1-carboxylate] |
| 97.1% | – | COC(=O)N1[C@H](C)C[C@H](NS(=O)(=O)CF)[C@@H]1COC1CCC2(c3ncc(F)c(OC)n3)CC2C1 (stereo partly drawn) [Example 85, methyl (2R,3S,5R)-2-(((6-(5-fluoro-4-methoxypyrimidin-2-yl)bicyclo[4.1.0]heptan-3-yl)oxy)methyl)-3-((fluoromethyl)sulfonamido)-5-methylpyrrolidine-1-carboxylate] |
| 102% | 19.6 nM | CC(C)OC(=O)N1[C@H](C)C[C@H](NS(C)(=O)=O)[C@@H]1CO[C@@H]1CC[C@]2(c3ncc(Cl)cn3)C[C@@H]2C1 (single isomer, unassigned) [Example 150] |
| 100% | – | COC(=O)N1[C@H](C)C[C@H](NS(=O)(=O)C(C)C)[C@@H]1CO[C@@H]1CC[C@]2(c3ncc(F)cn3)C[C@@H]2C1 [Example 46, methyl (2R,3S,5R)-2-((((1R,3R,6S)-6-(5-fluoropyrimidin-2-yl)bicyclo[4.1.0]heptan-3-yl)oxy)methyl)-5-methyl-3-((1-methylethyl)sulfonamido)pyrrolidine-1-carboxylate] |
| 104% | – | CC(OC(=O)N1[C@H](C)C[C@H](NS(C)(=O)=O)[C@@H]1CO[C@H]1CC[C@@]2(c3ncc(F)cn3)C[C@H]2C1)C(F)F (stereo partly drawn) [Example 63, 1,1-Difluoropropan-2-yl (2R,3S,5R)-2-((((1S,3S,6R)-6-(5-fluoropyrimidin-2-yl)bicyclo[4.1.0]heptan-3-yl)oxy)methyl)-5-methyl-3-(methylsulfonamido)pyrrolidine-1-carboxylate] |
| 101% | – | COC(=O)N1[C@H](C)C[C@H](NS(=O)(=O)C(F)F)[C@@H]1CO[C@H]1CC[C@@]2(c3ncc(F)cn3)C[C@H]2C1 [Example 48, methyl (2R,3S,5R)-3-((difluoromethyl)sulfonamido)-2-((((1S,3S,6R)-6-(5-fluoropyrimidin-2-yl)bicyclo[4.1.0]heptan-3-yl)oxy)methyl)-5-methylpyrrolidine-1-carboxylate] |
| 101% | – | CCS(=O)(=O)N[C@H]1[C@H]2CCC[C@H]2N(C(=O)OC)[C@H]1COC1CCC2(c3ncc(F)cn3)CC2C1 (stereo partly drawn) [Example 129, methyl (2R,3S,3aS,6aR)-3-(ethylsulfonamido)-2-(((6-(5-fluoropyrimidin-2-yl)bicyclo[4.1.0]heptan-3-yl)oxy)methyl)hexahydrocyclopenta[b]pyrrole-1(2H)-carboxylate] |
| 103% | – | COC(=O)N1[C@H](C)C[C@H](NS(=O)(=O)C(F)(F)F)[C@@H]1CO[C@@H]1CC[C@]2(c3ncc(F)cn3)C[C@@H]2C1 [Example 44, methyl (2R,3S,5R)-2-((((1R,3R,6S)-6-(5-fluoropyrimidin-2-yl)bicyclo[4.1.0]heptan-3-yl)oxy)methyl)-5-methyl-3-((trifluoromethyl)sulfonamido)pyrrolidine-1-carboxylate] |
| 97.8% | – | COC(=O)N1[C@H](C)C[C@H](NS(=O)(=O)N2CCC2)[C@@H]1CO[C@@H]1CC[C@]2(c3ncc(F)cn3)C[C@@H]2C1 [Example 43, methyl (2R,3S,5R)-3-(azetidine-1-sulfonamido)-2-((((1R,3R,6S)-6-(5-fluoropyrimidin-2-yl)bicyclo[4.1.0]heptan-3-yl)oxy)methyl)-5-methylpyrrolidine-1-carboxylate] |
| 102% | – | CC(C)OC(=O)N1[C@H](C)C[C@H](NS(C)(=O)=O)[C@@H]1CO[C@@H]1CC[C@]2(c3ncc(F)cn3)C[C@@H]2C1 [Example 29, isopropyl (2R,3S,5R)-2-((((1R,3R,6S)-6-(5-fluoropyrimidin-2-yl)bicyclo[4.1.0]heptan-3-yl)oxy)methyl)-5-methyl-3-(methylsulfonamido)pyrrolidine-1-carboxylate] |
| 99.5% | 142 nM | COC(=O)N1[C@H](C)C[C@H](NS(=O)(=O)N(C)C)[C@@H]1COC1CCC2(c3ncccn3)CC2C1 (single isomer, unassigned) [Example 186] |
| 103% | – | COC(=O)N1[C@H](C)C[C@H](NS(=O)(=O)C2CC2)[C@@H]1CO[C@H]1CC[C@@]2(c3ncc(F)cn3)C[C@H]2C1 [Example 42, methyl (2R,3S,5R)-3-(cyclopropanesulfonamido)-2-((((1S,3S,6R)-6-(5-fluoropyrimidin-2-yl)bicyclo[4.1.0]heptan-3-yl)oxy)methyl)-5-methylpyrrolidine-1-carboxylate] |
| 102% | – | COC(=O)N1[C@H](C)C[C@H](NS(=O)(=O)CF)[C@@H]1COC1CCC2(c3ncc(Cl)cn3)CC2C1 (stereo partly drawn) [Example 94, methyl (2R,3S,5R)-2-(((6-(5-chloropyrimidin-2-yl)bicyclo[4.1.0]heptan-3-yl)oxy)methyl)-3-((fluoromethyl)sulfonamido)-5-methylpyrrolidine-1-carboxylate] |
| 101% | 1.2 nM | CC(C)OC(=O)N1[C@H](C)C[C@H](NS(=O)(=O)C(F)F)[C@@H]1CO[C@H]1CC[C@@]2(c3ncc(F)cn3)C[C@H]2C1 (single isomer, unassigned) [Example 90] |
| 104% | – | CCC(C)S(=O)(=O)N[C@H]1C[C@@H](C)N(C(=O)OC)[C@H]1CO[C@H]1CC[C@@]2(c3ncc(F)cn3)C[C@H]2C1 (stereo partly drawn) [Example 41, methyl (2R,3S,5R)-2-((((1S,3S,6R)-6-(5-fluoropyrimidin-2-yl)bicyclo[4.1.0]heptan-3-yl)oxy)methyl)-5-methyl-3-((1-methylpropyl)sulfonamido)pyrrolidine-1-carboxylate] |
| 89.7% | 2260 nM | COC(=O)N1[C@H](C)C[C@H](NS(C)(=O)=O)[C@@H]1COC1CCC2(c3ncccn3)CC2C1 (single isomer, unassigned) [Example 183] |
